{"source": "patent EP4501917A1", "about": "“3,4-DIHYDROQUINOXALINE-2-CARBOXIMIDE DERIVATIVE COMPOUND AND PHARMACEUTICAL COMPOSITION COMPRISING SAME FOR PREVENTING OR TREATING CANCER DISEASE” (Daegu-Gyeongbuk Medical Innovation Foundation, priority 2022, dated 2023)", "key": {"HDAC8 [1]": {"molecular_target": "T1, HDAC8 (Homo sapiens, UniProt Q9BY41)", "T1 construct": "purchased BPS bioscience", "T1 sequence (Q9BY41 1-377)": "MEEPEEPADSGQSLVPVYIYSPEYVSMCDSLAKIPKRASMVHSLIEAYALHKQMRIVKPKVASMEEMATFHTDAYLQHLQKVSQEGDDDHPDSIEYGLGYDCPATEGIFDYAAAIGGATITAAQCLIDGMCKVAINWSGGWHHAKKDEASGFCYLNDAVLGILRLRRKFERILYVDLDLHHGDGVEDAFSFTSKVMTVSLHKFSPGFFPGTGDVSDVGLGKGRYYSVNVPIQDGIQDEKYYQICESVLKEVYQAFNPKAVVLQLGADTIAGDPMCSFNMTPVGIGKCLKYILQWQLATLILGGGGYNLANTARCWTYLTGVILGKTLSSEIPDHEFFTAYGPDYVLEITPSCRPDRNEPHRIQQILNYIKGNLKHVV", "test": "HDAC8 inhibitory activity analysis (in vitro), RFU analysis, HDAC Fluorogenic assay kit", "format": "biochemical", "procedure": "The compound of the Example was diluted to 1 mM (1% DMSO concentration) using DMSO to obtain a final concentration of 10 µM, and prepared by diluting 1/10 with assay buffer. In a 96-well black round-bottom plate, 5 µL of the diluted compound of the Example, 5 µL of the diluted HDAC substrate 2A, 5 µL of BSA (1 mg/mL), 5 µL of the HDAC8 enzyme diluted to an appropriate concentration, and 30 µL of assay buffer were added, and the enzyme reaction was performed at 37°C for 30 minutes. […] Afterwards, 50 µL of 2X HDAC developer was added to each well. After reacting for 15 minutes at room temperature, the fluorescence values at excitation wavelengths of 350-380 nm and emission wavelengths of 440-460 nm were measured using a microplate reader (Synergy Neo)."}, "HDAC8 [2]": {"molecular_target": "T1, HDAC8", "test": "Selective HDAC inhibition, HDAC Fluorogenic assay kit", "format": "biochemical", "procedure": "(§3) For analysis, HDAC substrate 3 was diluted in buffer to a concentration of 200 µM and used in HDAC 1, 2, 3, 6, and 10 assays, HDAC substrate 2A was diluted in buffer to a concentration of 200 µM and used in HDAC 4, 7, 9, and 11 assays, HDAC substrate 2A was diluted in buffer to a concentration of 20 µM and used in HDAC 8 assays. For the HDAC 11 assay, a dedicated buffer included in the kit was used separately, and the same buffer was used for the remaining assays. The compound of the Example was diluted to 1 mM (1% DMSO concentration) using DMSO to obtain a final concentration of 10 µM, and prepared by diluting 1/10 with assay buffer. In a 96-well black round-bottom plate, 5 µL of the diluted compound of the Example, 5 µL of the diluted HDAC substrate, 5 µL of BSA (1 mg/ml), 5 µL of the HDAC enzyme diluted to the appropriate concentration, and 30 µL of assay buffer were added, and the enzyme reaction was performed at 37°C for 30 minutes. […] Afterwards, 50 µL of 2X HDAC developer was added to each well. After reacting for 15 minutes at room temperature, the fluorescence values at excitation wavelengths of 350-380 nm and emission wavelengths of 440-460 nm were measured using a microplate reader (Synergy Neo)."}, "[3]": {"test_system": "PC-3 prostate cancer cells", "test": "Prostate cancer cell growth inhibition, CCK-8 assay", "format": "cell-based, human", "conditions": "PC-3 cells, result in words", "description": "PC-3, a human-derived prostate cancer cell line, was cultured with RPMI1640 (10% fetal bovine serum, 1% Penicillin Streptomycin) culture medium at 37°C, 5% CO2 condition. All cells in the experiment were subcultured when they reached a confluency of approximately 80% to 90%, and only cells that had not passed 20 passages were used.\nAfter culturing, 10 µL CCK-8 reagent was added and the absorbance was measured after 1 hour. The absorbance was measured at 450 nm using a microplate reader [BMG Labtech (Offenburg, Germany)]."}, "Liver cancer cells Huh-7": {"test_system": "Liver cancer cells Huh-7", "test": "Liver cancer cell growth inhibition, CellTiter-Glo Luminescent Cell Viability Assay", "format": "cell-based", "conditions": "Huh-7 cells, various concentrations, day 1, FIG. 6; result in words", "description": "In addition, an analysis of liver cancer growth inhibitory activity was performed. Liver cancer cells Huh-7 cells were dispensed in a 96-well plate at 1 × 10^4 cells/ml, and after 20 hours, PCI34051, Example 27, and Example 35 were added at various concentrations, and cultured for 24 and 48 hours at 37°C in a 5% CO2 atmosphere. After culturing, 100 µl CellTiter-Glo Luminescent Cell Viability Assay reagent was added and the luminescence signal was measured after 0.5-1 hour. The luminescence signal was measured using IVIS [PerkinElmer, (Waltham, USA)]."}, "PC-3 cell lines": {"test_system": "PC-3 cell lines", "test": "Prostate cancer model, PC-3 cell lines subcutaneously transplanted, tumor volume and weight", "format": "in vivo, nude mice", "conditions": "result in words", "description": "(§1) A prostate cancer model was established by subcutaneously transplanting PC-3 cell lines into nude mice, and the mice were divided into two groups (group 1: vehicle administration group (10% DSMO, 30% PEG400, 60% DW), group 2: 50 mg/kg Example 27 compound administration group). The drug was administered orally once a day for 12 times. To evaluate the therapeutic efficacy, tumors were […] before drug administration and on days 3, 6, 8, 10, 12, and 14 after drug administration, and tumor volumes were measured. Tumor volume (mm^3) was calculated as follows (tumor volume (mm^3) = (A X B^2)/2, where A = tumor long axis, B = tumor short axis), and the results are shown in FIG. 2.\nMeanwhile, on day 12 of drug administration, the tumor was removed and its weight was measured, the results are shown in FIG. 3, and a photograph of the removed tumor was taken and shown in FIG. 4."}, "[4]": {"test": "Body weight during drug administration, prostate cancer model", "format": "in vivo, nude mice", "conditions": "50 mg/kg, during the drug administration period, PC-3 model, FIG. 5; result in words", "description": "as §1"}, "Huh-7 cell lines": {"test_system": "Huh-7 cell lines", "test": "Liver cancer model, Huh-7 cell lines subcutaneously transplanted, tumor volume and weight", "format": "in vivo, nude mice", "conditions": "result in words", "description": "(§2) In addition, a liver cancer model was established by subcutaneously transplanting Huh-7 cell lines into nude mice. After establishing the liver cancer model, the mice were divided into two groups (group 1: vehicle administration group, group 2: 50 mg/kg Example 27 compound administration group). The drug was administered once a day for 12 times. To evaluate therapeutic efficacy, tumor volume was measured before drug administration and on days 4, 7, 10, 13, and 15 after drug administration. Tumor volume (mm^3) was calculated as follows (tumor volume (mm^3) = (A X B^2)/2, where A = tumor long axis, B = tumor short axis). Body weight was measured before administration and on days 4, 7, 10, 13, and 15 after drug administration during the drug administration period. Tumor was excised on day 15 after drug treatment and body weight was measured."}, "[5]": {"test": "Body weight during drug administration, liver cancer model", "format": "in vivo, nude mice", "conditions": "50 mg/kg, during the drug administration period, Huh-7 model, FIG. 7D; result in words", "description": "as §2"}, "HDAC4": {"molecular_target": "HDAC4 (Homo sapiens, UniProt P56524)", "sequence (P56524 whole entry)": "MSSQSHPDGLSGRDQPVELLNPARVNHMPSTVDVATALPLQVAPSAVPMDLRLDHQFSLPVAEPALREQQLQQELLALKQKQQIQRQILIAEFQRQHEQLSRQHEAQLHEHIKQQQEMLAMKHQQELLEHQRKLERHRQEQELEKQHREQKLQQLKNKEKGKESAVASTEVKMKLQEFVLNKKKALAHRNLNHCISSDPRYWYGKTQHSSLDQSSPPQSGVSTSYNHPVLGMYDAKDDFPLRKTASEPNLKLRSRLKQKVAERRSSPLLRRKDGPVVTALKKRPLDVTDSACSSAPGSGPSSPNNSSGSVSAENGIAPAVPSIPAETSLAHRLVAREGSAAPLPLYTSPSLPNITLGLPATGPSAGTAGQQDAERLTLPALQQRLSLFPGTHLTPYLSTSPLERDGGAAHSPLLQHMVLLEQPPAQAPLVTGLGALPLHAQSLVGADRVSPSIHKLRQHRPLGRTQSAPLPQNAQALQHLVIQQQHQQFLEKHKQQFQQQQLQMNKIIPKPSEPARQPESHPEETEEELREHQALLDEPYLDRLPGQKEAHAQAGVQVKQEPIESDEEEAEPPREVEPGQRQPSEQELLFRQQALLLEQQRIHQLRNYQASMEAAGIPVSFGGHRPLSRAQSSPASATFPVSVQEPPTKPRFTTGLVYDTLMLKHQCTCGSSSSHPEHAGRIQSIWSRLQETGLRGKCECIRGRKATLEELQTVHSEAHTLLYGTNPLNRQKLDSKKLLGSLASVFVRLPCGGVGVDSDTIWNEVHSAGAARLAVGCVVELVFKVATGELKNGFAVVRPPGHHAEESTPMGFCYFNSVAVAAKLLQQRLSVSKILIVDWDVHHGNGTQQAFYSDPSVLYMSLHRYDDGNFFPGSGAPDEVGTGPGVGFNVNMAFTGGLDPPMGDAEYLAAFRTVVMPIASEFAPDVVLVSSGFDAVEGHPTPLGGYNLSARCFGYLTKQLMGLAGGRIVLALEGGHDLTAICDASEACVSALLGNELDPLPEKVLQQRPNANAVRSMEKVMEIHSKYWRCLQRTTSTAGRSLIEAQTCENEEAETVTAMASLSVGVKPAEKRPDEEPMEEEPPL", "test": "Selective HDAC inhibition, HDAC Fluorogenic assay kit", "conditions": "read-out: HDAC4 enzyme activity (%)", "procedure": "as §3"}, "HDAC9": {"molecular_target": "HDAC9 (Homo sapiens, UniProt Q9UKV0)", "sequence (Q9UKV0 whole entry)": "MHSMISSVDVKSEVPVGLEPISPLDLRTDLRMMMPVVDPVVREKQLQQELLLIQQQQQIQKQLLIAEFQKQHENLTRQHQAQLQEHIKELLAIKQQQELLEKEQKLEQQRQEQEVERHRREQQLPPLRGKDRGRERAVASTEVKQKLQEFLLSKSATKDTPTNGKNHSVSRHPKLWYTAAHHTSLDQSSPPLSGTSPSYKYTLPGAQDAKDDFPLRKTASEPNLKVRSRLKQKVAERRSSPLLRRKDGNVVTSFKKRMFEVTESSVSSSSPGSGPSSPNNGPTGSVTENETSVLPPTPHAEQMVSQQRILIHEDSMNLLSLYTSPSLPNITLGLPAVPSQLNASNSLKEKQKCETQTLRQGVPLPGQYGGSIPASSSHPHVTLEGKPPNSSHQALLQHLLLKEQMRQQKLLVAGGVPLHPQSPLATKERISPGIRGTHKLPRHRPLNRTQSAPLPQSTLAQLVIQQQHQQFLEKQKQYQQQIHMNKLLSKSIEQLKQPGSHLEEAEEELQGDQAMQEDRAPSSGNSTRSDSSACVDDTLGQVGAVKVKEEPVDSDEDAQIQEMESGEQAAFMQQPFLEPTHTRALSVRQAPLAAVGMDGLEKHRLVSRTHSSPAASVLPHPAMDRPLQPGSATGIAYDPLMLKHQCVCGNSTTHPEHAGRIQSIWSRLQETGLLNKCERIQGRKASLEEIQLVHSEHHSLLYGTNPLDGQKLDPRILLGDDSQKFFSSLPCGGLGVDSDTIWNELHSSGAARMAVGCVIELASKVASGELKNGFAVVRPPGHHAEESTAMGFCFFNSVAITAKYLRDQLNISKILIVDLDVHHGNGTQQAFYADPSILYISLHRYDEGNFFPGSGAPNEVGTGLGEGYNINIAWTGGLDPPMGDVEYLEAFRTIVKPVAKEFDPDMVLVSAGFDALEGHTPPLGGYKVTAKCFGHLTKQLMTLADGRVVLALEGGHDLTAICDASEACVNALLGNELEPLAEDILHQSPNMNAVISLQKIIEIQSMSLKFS", "test": "Selective HDAC inhibition, HDAC Fluorogenic assay kit", "conditions": "read-out: HDAC9 enzyme activity (%)", "procedure": "as §3"}, "HDAC11": {"molecular_target": "T2, HDAC11 (Homo sapiens, UniProt Q96DB2)", "T2 sequence (Q96DB2 1-347)": "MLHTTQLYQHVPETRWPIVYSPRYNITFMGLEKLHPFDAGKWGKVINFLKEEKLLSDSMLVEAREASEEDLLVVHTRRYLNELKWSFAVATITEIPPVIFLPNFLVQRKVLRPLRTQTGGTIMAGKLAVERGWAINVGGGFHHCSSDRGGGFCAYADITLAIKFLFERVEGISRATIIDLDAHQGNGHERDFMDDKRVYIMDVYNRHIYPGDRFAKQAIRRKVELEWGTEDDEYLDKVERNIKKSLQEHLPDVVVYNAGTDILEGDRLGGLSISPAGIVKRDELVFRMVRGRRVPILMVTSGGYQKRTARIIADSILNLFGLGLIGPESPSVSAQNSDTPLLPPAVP", "test": "Selective HDAC inhibition, HDAC Fluorogenic assay kit", "conditions": "read-out: HDAC11 enzyme activity (%)", "procedure": "as §3"}}}
{"smiles": "Cc1cc2nc(C(=O)NCCc3c[nH]c4ccc(O)cc34)c(=O)n(C[C@H](O)[C@H](O)[C@H](O)CO)c2cc1C", "note": "[Example 27, N-(2-(5-hydroxy-1H-indol-3-yl)ethyl)-6,7-dimethyl-3-oxo-4-((2S,3S,4R)-2,3,4,5-tetrahydroxypentyl)-3,4-dihydroquinoxaline-2-carboxamide]", "values": [{"measurement": "RFU (%)", "setting": "HDAC8 [1]; compound final concentration 10 µM, HDAC substrate 2A 20 µM, positive control (1% DMSO) set to 100, lower = more inhibition", "value": 7.62, "unit": "%"}, {"measurement": "inhibitory activity against HDAC8", "setting": "HDAC8 [1]; result in words, summary of Table 2, 10 µM", "value": "inhibitory activity similar to TSA or SAHA"}, {"measurement": "remaining activity at 10 µM", "setting": "HDAC8 [2]; final concentration 10 µM, HDAC substrate 2A 20 µM, positive control (1% DMSO) set to 100, read-out: HDAC8 enzyme activity (%)", "value": 14.1, "unit": "%"}, {"measurement": "selective inhibitory effect on HDAC8", "setting": "HDAC8 [2]; result in words, HDAC8 versus HDAC1, 2, 3, 4, 6, 7, 9, 10, 11, summary of Table 3", "value": "selective and excellent inhibitory activity only against HDAC8"}, {"measurement": "cancer cell viability inhibition rate", "setting": "[3]; compared with PCI-34051, FIG. 1", "value": "superior to that of PCI-34051"}, {"measurement": "cell viability", "setting": "[3]; various concentrations, 24 hours and 48 hours, FIG. 1", "value": "effectively reduced the viability of prostate cancer cells in a concentration- and time-dependent manner"}, {"measurement": "cell viability", "setting": "Liver cancer cells Huh-7", "value": "concentration-dependent inhibition of cancer cell viability"}, {"measurement": "tumor volume", "setting": "PC-3 cell lines; 50 mg/kg orally once a day for 12 times, up to day 14, *p<0.05 compared with vehicle, FIG. 2", "value": "significantly reduced tumor volume growth rate compared to group 1"}, {"measurement": "tumor weight", "setting": "PC-3 cell lines; 50 mg/kg orally once a day, tumor removed on day 12, ***p<0.0005 compared with vehicle, FIG. 3", "value": "vehicle administration group (group 1) had a significantly higher tumor weight"}, {"measurement": "body weight of the mice", "setting": "[4]", "value": "no rapid weight loss was confirmed"}, {"measurement": "tumor volume", "setting": "Huh-7 cell lines; 50 mg/kg once a day for 12 times, until day 15, **p<0.005 compared with vehicle, FIG. 7A", "value": "tumor growth inhibitory effect"}, {"measurement": "tumor weight", "setting": "Huh-7 cell lines; 50 mg/kg, tumor removed on day 15, ***p<0.0005 compared with vehicle, FIGS. 7B and 7C", "value": "tumor weight of the vehicle group was significantly higher"}, {"measurement": "body weight", "setting": "[5]", "value": "No rapid weight loss was observed"}, {"measurement": "remaining activity at 10 µM", "setting": "HDAC4", "value": 98.2, "unit": "%"}, {"measurement": "remaining activity at 10 µM", "setting": "HDAC9", "value": 66.5, "unit": "%"}, {"measurement": "remaining activity at 10 µM", "setting": "HDAC11", "value": 97.3, "unit": "%"}]}
